According to patent US8716284B2, “Adamantyl diamide derivatives and uses of same” (H. Lundbeck A/S, priority 2008, dated 2014):

What follows are compounds tested against T1, rat metabotropic glutamate receptor 5 (mGluR5) (Rattus norvegicus, UniProt P31424) (assay: Calcium mobilization assay (FLIPR) for negative or positive allosteric activity, HEK 293 cells). Conditions: HEK293, negative allosteric modulation, inhibition of EC80 glutamate response; read-out: FLIPR maximum inhibition.
T1 construct: expressed in transfected cells; host or cells: HEK 293
T1 sequence (P31424 21-1171 isoform P31424-2 limits assumed): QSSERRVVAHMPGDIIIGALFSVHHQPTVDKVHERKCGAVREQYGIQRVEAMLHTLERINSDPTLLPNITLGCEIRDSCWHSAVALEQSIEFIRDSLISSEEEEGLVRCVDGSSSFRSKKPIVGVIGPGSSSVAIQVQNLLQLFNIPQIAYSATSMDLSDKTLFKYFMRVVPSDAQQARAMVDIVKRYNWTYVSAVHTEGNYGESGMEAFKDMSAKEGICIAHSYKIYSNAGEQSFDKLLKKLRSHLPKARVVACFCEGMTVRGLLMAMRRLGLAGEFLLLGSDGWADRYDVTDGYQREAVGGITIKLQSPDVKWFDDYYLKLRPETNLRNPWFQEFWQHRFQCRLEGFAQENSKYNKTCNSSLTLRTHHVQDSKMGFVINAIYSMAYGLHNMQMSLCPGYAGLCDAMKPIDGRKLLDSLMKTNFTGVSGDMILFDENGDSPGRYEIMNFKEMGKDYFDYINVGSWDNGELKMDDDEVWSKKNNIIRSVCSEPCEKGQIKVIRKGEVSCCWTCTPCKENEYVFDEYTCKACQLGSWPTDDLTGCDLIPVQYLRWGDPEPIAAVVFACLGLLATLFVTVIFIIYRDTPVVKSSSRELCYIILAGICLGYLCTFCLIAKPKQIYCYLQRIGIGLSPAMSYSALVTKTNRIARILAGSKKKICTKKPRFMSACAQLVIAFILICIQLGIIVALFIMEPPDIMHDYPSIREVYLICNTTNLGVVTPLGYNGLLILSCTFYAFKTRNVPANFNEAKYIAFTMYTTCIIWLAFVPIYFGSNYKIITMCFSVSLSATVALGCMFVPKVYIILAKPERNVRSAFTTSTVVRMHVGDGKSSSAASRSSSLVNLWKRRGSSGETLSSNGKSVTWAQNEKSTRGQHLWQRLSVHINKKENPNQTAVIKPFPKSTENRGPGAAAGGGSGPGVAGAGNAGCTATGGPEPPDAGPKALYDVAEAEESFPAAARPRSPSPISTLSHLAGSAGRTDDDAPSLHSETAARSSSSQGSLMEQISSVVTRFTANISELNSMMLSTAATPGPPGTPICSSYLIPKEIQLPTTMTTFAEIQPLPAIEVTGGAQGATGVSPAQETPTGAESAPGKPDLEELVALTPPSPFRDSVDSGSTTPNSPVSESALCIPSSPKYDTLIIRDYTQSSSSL
Assay type: cell-based
Outline: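 HEK 293 cells stably expressing rat mGluR5, Fluo-4 loaded in HEPES-buffered HBSS pH 7.4 with 0.1% BSA and probenecid. Compound added with EC20 (potentiation) or EC80 (inhibition) glutamate; fluorescence read over 3 min at room temperature. Basal-subtracted maximum fluorescence change fitted to Hill equation.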

| Structure (SMILES) | Emax |
| --- | --- |
| Cc1cccc(C(=O)NC23CC4CC(C2)CC(NC(=O)c2cccc(N5CCC[C@@H]5CO)n2)(C4)C3)n1 [Example 238, 6-((R)-2-Hydroxymethyl-pyrrolidin-1-yl)-pyridine-2-carboxylic acid {3-[(6-methyl-pyridine-2-carbonyl)-amino]-adamantan-1-yl}-amide] | 63 to 99% |
| O=C(NC12CC3CC(C1)CC(NC(=O)c1nccc(C(F)(F)F)n1)(C3)C2)c1cccc(F)c1 [Example 184, 4-Trifluoromethyl-pyrimidine-2-carboxylic acid [3-(3-fluoro-benzoylamino)-adamantan-1-yl]-amide] | 63 to 99% |
| CC(=O)NCCNc1cccc(C(=O)NC23CC4CC(CC(NC(=O)c5ccccn5)(C4)C2)C3)n1 [Example 223, 6-(2-Acetylamino-ethylamino)-pyridine-2-carboxylic acid {3-[(pyridine-2-carbonyl)-amino]-adamantan-1-yl}-amide] | 63 to 99% |
| Cc1cccc(C(=O)NC23CC4CC(CC(NC(=O)c5cccc(C#N)c5)(C4)C2)C3)n1 [Example 32, 6-Methyl-pyridine-2-carboxylic acid [3-(3-cyano-benzoylamino)-adamantan-1-yl]-amide] | 63 to 99% |
| O=C(NC12CC3CC(C1)CC(NC(=O)c1ccn4ccnc4c1)(C3)C2)c1cccc(F)c1 [Example 99, Imidazo[1,2-a]pyridine-7-carboxylic acid [3-(3-fluoro-benzoylamino)-adamantan-1-yl]-amide] | 63 to 99% |
| Cc1cccc(C(=O)NC23CC4CC(CC(NC(=O)c5cccc(N(C)C)c5)(C4)C2)C3)n1 [Example 114, 6-Methyl-pyridine-2-carboxylic acid [3-(3-dimethyl-amino-benzoylamino)-adamantan-1-yl]-amide] | 70 to 99% |
| Cc1ccc2nc(C(=O)NC34CC5CC(CC(NC(=O)c6cccc(F)c6)(C5)C3)C4)cn2c1 [Example 102, 6-Methyl-imidazo[1,2-a]pyridine-2-carboxylic acid [3-(3-fluoro-benzoylamino)-adamantan-1-yl]-amide] | 63 to 99% |

Second part, the compound after the results:

| Emax | Structure (SMILES) |
| --- | --- |
| 63 to 99% | Cc1cccc(C(=O)NC23CC4CC(CC(NC(=O)c5cccnn5)(C4)C2)C3)n1 [Example 24, Pyridazine-3-carboxylic acid {3-[(6-methyl-pyridine-2-carbonyl)-amino]-adamantan-1-yl}-amide] |
| 63 to 99% | O=C(NC12CC3CC(C1)CC(NC(=O)c1ccc4[nH]ccc4n1)(C3)C2)c1ccccn1 [Example 66, 1H-Pyrrolo[3,2-b]pyridine-5-carboxylic acid {3-[(pyridine-2-carbonyl)-amino]-adamantan-1-yl}-amide] |
| 63 to 99% | Cc1cccc(C(=O)NC23CC4CC(CC(NC(=O)c5cc(C6CC6)on5)(C4)C2)C3)n1 [Example 26, 6-Methyl-pyridine-2-carboxylic acid {3-[(5-cyclopropyl-isoxazole-3-carbonyl)-amino]-adamantan-1-yl}-amide] |
| 70 to 99% | Cc1cccc(C(=O)NC23CC4CC(CC(NC(=O)c5ccc(F)cn5)(C4)C2)C3)n1 [Example 137, 5-Fluoro-pyridine-2-carboxylic acid {3-[(6-methyl-pyridine-2-carbonyl)-amino]-adamantan-1-yl}-amide] |
| 70 to 99% | COc1ccnc(C(=O)NC23CC4CC(C2)CC(NC(=O)c2cncc(C)n2)(C4)C3)c1 [Example 153, 6-Methyl-pyrazine-2-carboxylic acid {3-[(4-methoxy-pyridine-2-carbonyl)-amino]-adamantan-1-yl}-amide] |
| 63 to 99% | Cc1cncc(C(=O)NC23CC4CC(C2)CC(NC(=O)c2cccc(F)n2)(C4)C3)n1 [Example 164, 6-Methyl-pyrazine-2-carboxylic acid {3-[(6-fluoro-pyridine-2-carbonyl)-amino]-adamantan-1-yl}-amide] |
| 63 to 99% | Cc1cncc(C(=O)NC23CC4CC(CC(NC(=O)c5cncc(Cl)c5)(C4)C2)C3)n1 [Example 170, 6-Methyl-pyrazine-2-carboxylic acid {3-[(5-chloro-pyridine-3-carbonyl)-amino]-adamantan-1-yl}-amide] |
